# ChEMBL document CHEMBL1201862, “PubChem BioAssay data set” (2004)
#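 Assay format: 96-well plates, 48-hour exposure. GI50: concentration for 50% inhibition of growth.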 Calls of active or inactive are those of the source. Rule as the data show it: active = GI50 up to about 1.1 µM and inactive = higher.
# How the values were obtained:
# Experiment in all cases: inhibition of tumour cell growth, NCI panel, 48 h
# [1] = test system: A549
# [2] = test system: HT-29
# [3] = test system: IGROV-1
# [4] = test system: KM12
# [5] = test system: MOLT-4
# [6] = test system: NCI-H226
# [7] = test system: NCI-H522
# [8] = test system: OVCAR-3
# [9] = test system: OVCAR-5
# [10] = test system: SF-268
# [11] = test system: SK-MEL-2
# [12] = test system: SN12C
# [13] = test system: SR
# [14] = test system: TK-10
# [15] = test system: UACC-62
# [16] = test system: UO-31
# [17] = test system: Malme-3M
# [18] = test system: SNB-75
SMILES,GI50 [1],GI50 [2],GI50 [3],GI50 [4],GI50 [5],GI50 [6],GI50 [7],GI50 [8],GI50 [9],GI50 [10],GI50 [11],GI50 [12],GI50 [13],GI50 [14],GI50 [15],GI50 [16],GI50 [17],GI50 [18]
CC(=O)O[C@H]1C=CC23OC(=O)[C@]1(C)[C@H]2[C@H](C(=O)O)C12CC(=O)[C@@](CO)(CC[C@H]13)C2,> 100 µM (inactive),> 100 µM (inactive),> 100 µM (inactive),> 100 µM (inactive),> 100 µM (inactive),> 100 µM (inactive),> 100 µM (inactive),> 100 µM (inactive),> 100 µM (inactive),> 100 µM (inactive),> 100 µM (inactive),> 100 µM (inactive),> 100 µM (inactive),> 100 µM (inactive),75.7 µM (inactive),> 100 µM (inactive),–,–
COC(=O)/C=C(C)/C=C/c1c(C)c(C(C)=O)c(C)n1C,> 100 µM (inactive),> 100 µM (inactive),> 100 µM (inactive),> 100 µM (inactive),40.3 µM (inactive),80.4 µM (inactive),51.1 µM (inactive),> 100 µM (inactive),> 100 µM (inactive),> 100 µM (inactive),–,> 100 µM (inactive),–,> 100 µM (inactive),96.2 µM (inactive),61.1 µM (inactive),> 100 µM (inactive),–
O=C1OC(CC(=O)c2ccc(F)cc2)C(Cl)=C1Cl (stereo unspecified),40 µM (inactive),18.2 µM (inactive),27.2 µM (inactive),16.7 µM (inactive),29 µM (inactive),18.5 µM (inactive),18.9 µM (inactive),22.1 µM (inactive),24.5 µM (inactive),> 10 µM (inactive),22.4 µM (inactive),19.4 µM (inactive),27.2 µM (inactive),40.2 µM (inactive),17 µM (inactive),22.3 µM (inactive),17.2 µM (inactive),–
O=C(CC1(O)C(=O)Nc2ccc([N+](=O)[O-])cc21)c1ccc(Br)cc1 (stereo unspecified),> 100 µM (inactive),> 100 µM (inactive),–,42.9 µM (inactive),35.8 µM (inactive),85.1 µM (inactive),19.6 µM (inactive),43 µM (inactive),> 100 µM (inactive),55.1 µM (inactive),> 100 µM (inactive),> 100 µM (inactive),–,32.7 µM (inactive),47.2 µM (inactive),45.1 µM (inactive),> 100 µM (inactive),23.3 µM (inactive)
COc1cc2c(c(OC)c1OC)-c1ccc(SC)c(=O)cc1[C@@H](NCc1ccccc1[N+](=O)[O-])CC2,0.00929 µM (active),0.00391 µM (active),0.0135 µM (active),0.00406 µM (active),0.0241 µM (active),0.0234 µM (active),0.011 µM (active),0.00428 µM (active),0.0216 µM (active),0.0106 µM (active),0.0217 µM (active),0.0209 µM (active),–,0.061 µM (active),0.00326 µM (active),0.01 µM (active),0.00817 µM (active),0.00225 µM (active)
CCNc1nc2c(=O)n(C)c(=O)n(C)c2s1,> 100 µM (inactive),> 100 µM (inactive),> 100 µM (inactive),> 100 µM (inactive),> 100 µM (inactive),> 100 µM (inactive),> 100 µM (inactive),> 100 µM (inactive),> 100 µM (inactive),> 100 µM (inactive),> 100 µM (inactive),> 100 µM (inactive),–,> 100 µM (inactive),> 100 µM (inactive),> 100 µM (inactive),> 100 µM (inactive),> 100 µM (inactive)
COC(=O)C12C3C4C1C1C2C3C41C(=O)N(C(C)C)C(C)C (stereo unspecified),> 100 µM (inactive),> 100 µM (inactive),> 100 µM (inactive),> 100 µM (inactive),> 100 µM (inactive),> 100 µM (inactive),> 100 µM (inactive),> 100 µM (inactive),> 100 µM (inactive),> 100 µM (inactive),–,> 100 µM (inactive),> 100 µM (inactive),> 100 µM (inactive),> 100 µM (inactive),> 100 µM (inactive),> 100 µM (inactive),50.2 µM (inactive)
CCOC(=O)C1C=C2O[C@@H]3OC4(CCCCC4)O[C@@H]3C2C2C(=O)CCC(=O)[C@@]12C(=O)OC (stereo partly specified),> 100 µM (inactive),> 10 µM (inactive),> 100 µM (inactive),> 100 µM (inactive),> 100 µM (inactive),> 100 µM (inactive),> 100 µM (inactive),82.4 µM (inactive),> 100 µM (inactive),> 100 µM (inactive),> 100 µM (inactive),> 100 µM (inactive),–,–,> 100 µM (inactive),> 100 µM (inactive),> 100 µM (inactive),> 100 µM (inactive)
